Experimental data reported in ChEMBL document CHEMBL1201862, “PubChem BioAssay data set” (2004).
Active and inactive are the calls of the source.

Key:
[1] = target: 5-hydroxytryptamine receptor 5A (Homo sapiens, UniProt P47898); test: Counterscreen for agonists of OPRM1-OPRD1 heterodimerization: luminescence-based cell-based high throughput dose response assay to identify agonists of 5-hydroxytryptamine (serotonin) 5A receptor (HTR5A). [Related pubchem assays (depositor defined):AID504326, AID504355, AID504692, AID504904, AID504905]; format: functional
Chain of 5-hydroxytryptamine receptor 5A (P47898 whole entry): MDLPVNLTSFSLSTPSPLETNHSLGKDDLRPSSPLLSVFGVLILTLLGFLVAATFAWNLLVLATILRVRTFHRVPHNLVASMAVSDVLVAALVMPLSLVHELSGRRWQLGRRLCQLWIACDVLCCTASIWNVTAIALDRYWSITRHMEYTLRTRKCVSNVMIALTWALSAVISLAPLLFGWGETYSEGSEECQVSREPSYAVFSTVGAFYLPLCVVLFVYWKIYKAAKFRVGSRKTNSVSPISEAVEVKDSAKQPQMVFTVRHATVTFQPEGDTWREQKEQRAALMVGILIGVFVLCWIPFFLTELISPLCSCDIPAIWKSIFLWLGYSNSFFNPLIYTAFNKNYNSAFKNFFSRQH

Prothrombin = Prothrombin (Bos taurus, UniProt P00735); test: thrombin inhibition, dose response, biochemical, fluorescence polarization, uHTS hits (AID 602369); format: functional
[2] = target: 26S proteasome non-ATPase regulatory subunit 14 (Homo sapiens, UniProt O00487); test: inhibition of proteasome subunit RPN11 – biochemical, fluorescence polarization, uHTS hits, confirmation (AID 602368); format: functional
Chain of 26S proteasome non-ATPase regulatory subunit 14 (O00487 whole entry): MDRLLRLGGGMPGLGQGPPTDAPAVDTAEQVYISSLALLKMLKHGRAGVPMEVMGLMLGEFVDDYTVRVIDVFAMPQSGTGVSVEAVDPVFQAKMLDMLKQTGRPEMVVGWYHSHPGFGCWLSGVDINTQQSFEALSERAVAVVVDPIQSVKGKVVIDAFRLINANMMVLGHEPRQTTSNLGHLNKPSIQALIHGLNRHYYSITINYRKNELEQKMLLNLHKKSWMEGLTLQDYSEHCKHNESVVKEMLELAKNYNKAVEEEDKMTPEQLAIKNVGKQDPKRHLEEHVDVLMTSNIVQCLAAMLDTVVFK

[3] = target: 72 kDa type IV collagenase (Homo sapiens, UniProt P08253); test: Dose Response validation of uHTS RPN11 inhibitor hits using a MMP-2 Fluorescence assay.; format: functional
Chain of 72 kDa type IV collagenase (P08253 whole entry): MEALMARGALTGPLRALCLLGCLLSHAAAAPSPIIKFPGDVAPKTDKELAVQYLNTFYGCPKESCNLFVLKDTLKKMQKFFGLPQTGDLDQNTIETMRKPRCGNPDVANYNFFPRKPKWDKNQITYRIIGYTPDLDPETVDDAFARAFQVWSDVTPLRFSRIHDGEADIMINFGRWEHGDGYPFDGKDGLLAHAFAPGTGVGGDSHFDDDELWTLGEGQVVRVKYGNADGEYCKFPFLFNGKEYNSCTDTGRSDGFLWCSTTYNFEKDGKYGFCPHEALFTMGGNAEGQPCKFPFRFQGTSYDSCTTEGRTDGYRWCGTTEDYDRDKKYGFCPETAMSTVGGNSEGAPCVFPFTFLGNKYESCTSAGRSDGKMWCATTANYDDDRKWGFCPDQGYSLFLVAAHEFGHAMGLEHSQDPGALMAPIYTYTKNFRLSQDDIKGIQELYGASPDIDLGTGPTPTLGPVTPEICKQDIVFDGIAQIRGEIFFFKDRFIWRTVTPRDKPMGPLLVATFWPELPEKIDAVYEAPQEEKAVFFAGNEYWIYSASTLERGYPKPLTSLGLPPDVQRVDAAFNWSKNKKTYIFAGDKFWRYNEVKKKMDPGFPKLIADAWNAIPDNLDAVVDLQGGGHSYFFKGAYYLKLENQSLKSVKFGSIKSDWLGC

Mu-type opioid receptor = Mu-type opioid receptor (Homo sapiens, UniProt P35372); test: (§1) Counterscreen for agonists of heterodimerization of the mu 1 (OPRM1) and delta 1 (OPRD1) opioid receptors: Luminescence-based cell-based high throughput dose response assay to identify agonists of OPRM1 homodimerization.; format: functional
Chain of Mu-type opioid receptor (P35372 whole entry): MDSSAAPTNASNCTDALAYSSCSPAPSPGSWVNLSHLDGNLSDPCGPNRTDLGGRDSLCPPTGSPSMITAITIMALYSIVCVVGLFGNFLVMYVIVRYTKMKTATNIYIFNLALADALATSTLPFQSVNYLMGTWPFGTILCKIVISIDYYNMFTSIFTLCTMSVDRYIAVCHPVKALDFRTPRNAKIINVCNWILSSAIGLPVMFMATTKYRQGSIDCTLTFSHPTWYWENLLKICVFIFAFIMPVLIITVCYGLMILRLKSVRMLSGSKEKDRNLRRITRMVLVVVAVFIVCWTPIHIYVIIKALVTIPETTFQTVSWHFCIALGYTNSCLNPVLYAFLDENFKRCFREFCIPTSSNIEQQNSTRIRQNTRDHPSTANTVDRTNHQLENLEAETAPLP

[4] = target: T1, Apoptotic protease-activating factor 1 (Homo sapiens, UniProt O14727); format: functional
T1 sequence (O14727 whole entry): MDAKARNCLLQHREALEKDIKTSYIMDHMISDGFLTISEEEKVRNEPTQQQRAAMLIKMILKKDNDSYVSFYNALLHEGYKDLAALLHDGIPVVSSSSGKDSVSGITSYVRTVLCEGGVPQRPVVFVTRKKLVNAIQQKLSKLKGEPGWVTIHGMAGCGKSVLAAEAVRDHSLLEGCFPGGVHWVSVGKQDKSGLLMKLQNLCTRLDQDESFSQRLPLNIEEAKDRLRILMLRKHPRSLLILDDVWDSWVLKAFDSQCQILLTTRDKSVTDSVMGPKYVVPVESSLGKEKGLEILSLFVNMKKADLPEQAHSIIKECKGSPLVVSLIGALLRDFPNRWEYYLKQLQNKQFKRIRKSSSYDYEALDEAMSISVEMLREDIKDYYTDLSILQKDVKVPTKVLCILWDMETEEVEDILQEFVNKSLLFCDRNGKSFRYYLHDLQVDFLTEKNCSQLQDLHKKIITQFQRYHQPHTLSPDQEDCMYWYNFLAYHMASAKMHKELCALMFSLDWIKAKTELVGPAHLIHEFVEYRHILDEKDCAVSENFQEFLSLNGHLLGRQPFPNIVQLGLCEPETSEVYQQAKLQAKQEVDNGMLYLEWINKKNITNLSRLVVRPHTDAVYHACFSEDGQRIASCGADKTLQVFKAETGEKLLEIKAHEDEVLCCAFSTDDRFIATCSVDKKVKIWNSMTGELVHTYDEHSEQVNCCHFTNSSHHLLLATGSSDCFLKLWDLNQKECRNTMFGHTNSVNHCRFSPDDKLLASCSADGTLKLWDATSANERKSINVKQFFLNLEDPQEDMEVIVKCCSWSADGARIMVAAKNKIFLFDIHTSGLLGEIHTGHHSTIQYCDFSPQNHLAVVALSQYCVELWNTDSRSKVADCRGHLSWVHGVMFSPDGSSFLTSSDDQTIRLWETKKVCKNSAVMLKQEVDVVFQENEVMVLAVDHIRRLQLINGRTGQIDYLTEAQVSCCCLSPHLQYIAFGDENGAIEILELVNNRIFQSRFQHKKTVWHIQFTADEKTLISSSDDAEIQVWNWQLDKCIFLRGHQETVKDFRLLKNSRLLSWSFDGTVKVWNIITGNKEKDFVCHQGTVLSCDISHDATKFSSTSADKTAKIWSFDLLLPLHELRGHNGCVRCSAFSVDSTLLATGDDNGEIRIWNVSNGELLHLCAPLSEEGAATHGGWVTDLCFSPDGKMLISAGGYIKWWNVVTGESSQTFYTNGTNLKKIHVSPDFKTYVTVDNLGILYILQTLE

[5] = target: Delta-type opioid receptor (Homo sapiens, UniProt P41143); test: as §1, with “of OPRD1” for “of OPRM1”, “homodimerization. [Related pubchem assays (depositor defined):AID504326, AID504355, AID504692, AID504904, AID504905]” for “homodimerization.”; format: functional
Chain of Delta-type opioid receptor (P41143 whole entry): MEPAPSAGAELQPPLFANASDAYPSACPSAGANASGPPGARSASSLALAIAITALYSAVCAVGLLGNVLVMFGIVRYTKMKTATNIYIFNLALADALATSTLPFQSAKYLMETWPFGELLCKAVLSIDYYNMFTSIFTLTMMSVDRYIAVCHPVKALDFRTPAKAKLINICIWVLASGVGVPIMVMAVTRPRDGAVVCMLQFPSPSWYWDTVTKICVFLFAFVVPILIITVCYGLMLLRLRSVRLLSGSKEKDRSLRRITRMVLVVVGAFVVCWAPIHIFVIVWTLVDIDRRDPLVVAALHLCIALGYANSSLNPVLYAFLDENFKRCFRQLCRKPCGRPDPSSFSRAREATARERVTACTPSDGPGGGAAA

Protein Tat = target: T2, Protein Tat (Human immunodeficiency virus type 1 group M subtype B (isolate HXB2)(HIV-1), UniProt P04608); format: functional;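 further: tat binding to TAR RNA read out by fluorescence polarization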
T2 sequence (P04608 whole entry): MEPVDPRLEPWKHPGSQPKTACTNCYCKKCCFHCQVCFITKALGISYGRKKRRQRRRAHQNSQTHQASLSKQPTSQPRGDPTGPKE

[6] = THP-1 cell cytotoxicity, dose response, cytotoxicity control for Vif-APOBEC3G degradation inhibitor project, THP-1 cells (AID 1117359); format: functional; conditions: Human immunodeficiency virus 1, THP-1
[7] = target: Glucose-6-phosphate 1-dehydrogenase (Homo sapiens, UniProt P11413); test: human G6PD enzyme inhibitors, dose response, selectivity assay for P. falciparum G6PD inhibitor project, biochemical, fluorescence (AID 504792); format: functional
Chain of Glucose-6-phosphate 1-dehydrogenase (P11413 whole entry): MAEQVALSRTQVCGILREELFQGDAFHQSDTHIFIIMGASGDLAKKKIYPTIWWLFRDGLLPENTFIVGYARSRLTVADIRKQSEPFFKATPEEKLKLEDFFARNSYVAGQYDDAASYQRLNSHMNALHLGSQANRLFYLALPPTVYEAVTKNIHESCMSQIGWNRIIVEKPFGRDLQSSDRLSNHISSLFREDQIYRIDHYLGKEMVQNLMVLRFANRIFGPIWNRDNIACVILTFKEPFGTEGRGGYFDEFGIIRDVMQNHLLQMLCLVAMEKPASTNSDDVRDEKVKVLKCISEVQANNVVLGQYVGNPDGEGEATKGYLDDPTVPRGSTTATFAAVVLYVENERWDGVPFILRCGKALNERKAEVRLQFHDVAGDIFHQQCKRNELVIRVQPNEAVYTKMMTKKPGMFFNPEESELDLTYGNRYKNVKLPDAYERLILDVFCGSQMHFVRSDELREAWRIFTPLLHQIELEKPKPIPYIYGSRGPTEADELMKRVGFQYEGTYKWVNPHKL

[8] = target: T3, Mannose-6-phosphate isomerase (Homo sapiens, UniProt P34949); test: human PMI inhibitors, high substrate, primary screen, biochemical, fluorescence intensity, high mannose 6-phosphate (AID 1220)
T3 sequence (P34949 whole entry): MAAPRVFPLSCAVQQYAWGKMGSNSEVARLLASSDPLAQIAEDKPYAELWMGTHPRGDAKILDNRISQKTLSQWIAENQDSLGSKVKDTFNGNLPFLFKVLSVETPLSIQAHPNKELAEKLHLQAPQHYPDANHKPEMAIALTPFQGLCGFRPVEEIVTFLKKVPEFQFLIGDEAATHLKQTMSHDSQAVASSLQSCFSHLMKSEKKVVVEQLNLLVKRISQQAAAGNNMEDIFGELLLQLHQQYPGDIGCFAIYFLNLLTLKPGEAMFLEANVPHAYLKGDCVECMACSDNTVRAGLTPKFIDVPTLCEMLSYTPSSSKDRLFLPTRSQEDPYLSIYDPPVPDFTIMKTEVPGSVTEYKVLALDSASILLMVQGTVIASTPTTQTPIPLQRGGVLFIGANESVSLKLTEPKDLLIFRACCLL

BJ [9] = test: cells; format: functional, cell-based; conditions: Homo sapiens
Streptokinase A = target: T4, Streptokinase A (Streptococcus pyogenes serotype M1, UniProt P10520); test: S. pyogenes streptokinase expression inhibitors, potency, dose response, plasminogen activation absorbance, OD405 (AID 1914); format: functional, Streptococcus pyogenes M1 GAS;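 further: secreted streptokinase activity via plasminogen activation per viability signal from cell pellet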
T4 sequence (P10520 whole entry): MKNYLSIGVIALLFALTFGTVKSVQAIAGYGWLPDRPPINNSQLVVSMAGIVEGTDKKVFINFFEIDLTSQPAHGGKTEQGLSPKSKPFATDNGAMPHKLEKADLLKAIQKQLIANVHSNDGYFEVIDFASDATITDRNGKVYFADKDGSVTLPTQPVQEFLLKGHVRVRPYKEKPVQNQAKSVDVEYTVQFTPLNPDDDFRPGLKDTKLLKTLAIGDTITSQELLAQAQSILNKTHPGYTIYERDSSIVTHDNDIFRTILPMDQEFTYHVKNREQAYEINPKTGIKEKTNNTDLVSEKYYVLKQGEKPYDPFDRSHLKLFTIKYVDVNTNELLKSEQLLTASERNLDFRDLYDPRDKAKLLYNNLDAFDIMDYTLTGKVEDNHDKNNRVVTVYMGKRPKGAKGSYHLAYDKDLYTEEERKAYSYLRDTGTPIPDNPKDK

BJ [10] = test: cytotoxicity toward BJ-TERT fibroblasts, dose response, cell-based, RAS-independent, luminescence (AID 1933); format: functional; conditions: Homo sapiens
[11] = test system: Streptococcus sp. 'group A'; test: growth inhibition of control SK(-) GAS strain, dose response, counter-screen for streptokinase expression inhibitor project, luminescence, kanamycin, BacTiterGlo, confirmation (AID 1900); format: functional, organism-based
[12] = target: T5, Tyrosine-protein phosphatase non-receptor type 22 (Homo sapiens, UniProt Q9Y2R2); format: functional
T5 sequence (Q9Y2R2 whole entry): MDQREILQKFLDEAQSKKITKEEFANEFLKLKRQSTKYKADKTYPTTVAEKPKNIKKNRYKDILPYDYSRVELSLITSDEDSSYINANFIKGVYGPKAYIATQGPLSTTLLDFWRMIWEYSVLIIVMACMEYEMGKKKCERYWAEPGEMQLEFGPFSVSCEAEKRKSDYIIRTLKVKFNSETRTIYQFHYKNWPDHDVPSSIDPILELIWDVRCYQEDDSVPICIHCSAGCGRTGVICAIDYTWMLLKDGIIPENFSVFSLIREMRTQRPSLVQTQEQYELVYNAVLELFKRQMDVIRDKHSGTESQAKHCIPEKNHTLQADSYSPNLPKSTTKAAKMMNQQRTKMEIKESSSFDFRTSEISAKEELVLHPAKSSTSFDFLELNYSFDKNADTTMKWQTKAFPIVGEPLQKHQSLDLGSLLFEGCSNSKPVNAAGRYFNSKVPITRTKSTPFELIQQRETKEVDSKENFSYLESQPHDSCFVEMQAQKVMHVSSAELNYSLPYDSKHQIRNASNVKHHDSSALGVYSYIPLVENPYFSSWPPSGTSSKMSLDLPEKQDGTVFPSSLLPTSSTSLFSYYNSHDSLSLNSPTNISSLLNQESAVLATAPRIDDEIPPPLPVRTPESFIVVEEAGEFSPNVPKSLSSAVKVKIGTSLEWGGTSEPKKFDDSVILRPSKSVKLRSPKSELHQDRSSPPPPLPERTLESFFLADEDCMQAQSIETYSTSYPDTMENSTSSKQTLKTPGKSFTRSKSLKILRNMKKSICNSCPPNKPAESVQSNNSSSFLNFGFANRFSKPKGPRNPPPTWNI

[13] = target: T6, Tyrosine-protein phosphatase non-receptor type 7 (Homo sapiens, UniProt P35236); format: functional
T6 sequence (P35236 whole entry): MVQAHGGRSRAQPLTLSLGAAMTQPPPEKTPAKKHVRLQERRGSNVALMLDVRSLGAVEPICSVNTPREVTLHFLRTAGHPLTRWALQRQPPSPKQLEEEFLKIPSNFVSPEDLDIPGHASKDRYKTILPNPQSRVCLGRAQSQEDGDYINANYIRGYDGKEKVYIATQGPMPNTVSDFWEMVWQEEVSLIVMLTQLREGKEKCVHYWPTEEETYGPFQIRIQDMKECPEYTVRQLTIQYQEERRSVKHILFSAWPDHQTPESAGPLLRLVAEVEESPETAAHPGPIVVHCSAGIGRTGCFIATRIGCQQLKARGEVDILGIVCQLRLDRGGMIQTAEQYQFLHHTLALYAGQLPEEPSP

[14] = target: T5, Tyrosine-protein phosphatase non-receptor type 22; format: functional; remark: listed apart in the source
BJ [15] = test: cytotoxicity toward BJ-TERT-LT-ST fibroblasts, dose response, cell-based, RAS-independent, luminescence (AID 1935); format: functional; conditions: Homo sapiens;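 further: BJ fibroblasts immortalized with TERT plus LT and ST oncogenes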
Streptococcus = test: Group A Streptococcus viability loss, dose response, counter-screen for streptokinase expression inhibitor project, luminescence, BacTiterGlo (AID 1915); format: functional, organism-based;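 further: potency for reduction of bacterial viability or growth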
Vero = test: cells; format: functional; conditions: Chlorocebus sabaeus
[16] = cytotoxicity toward DRD oncogenic fibroblasts, dose response, cell-based, non-viral oncogenic, luminescence (AID 1934); format: functional; conditions: Homo sapiens

**Q.** For `Cc1cc(N2CCN(c3ccc([N+](=O)[O-])c4cccnc34)CC2)c2ccccc2n1`, which EC50 [1] is on record?
**A.** The EC50 was > 92.5 µM (inactive).

**Q.** What about the IC50 (Prothrombin) of the same compound?
**A.** The IC50 was 27.7 µM (active).

**Q.** And the IC50 [2]?
**A.** The IC50 was 27.7 µM (active).

**Q.** And the IC50 [3]?
**A.** The IC50 was > 100 µM (inactive).

**Q.** And the EC50 (Mu-type opioid receptor)?
**A.** The EC50 was > 92.5 µM (inactive).

**Q.** What about the IC50 [4] of the same compound?
**A.** The IC50 was 34 µM (active).

**Q.** And the EC50 [5]?
**A.** The EC50 was > 92.5 µM (inactive).

**Q.** For `CCOc1ccc(CNc2ccc(N3CCCC3)cc2)cc1`, which IC50 (Protein Tat) is on record?
**A.** Its IC50 is 75.3 µM (inconclusive).

**Q.** And the CC50 [6]?
**A.** Its CC50 is > 40 µM (active).

**Q.** What about the IC50 [7] of the same compound?
**A.** Its IC50 is > 80 µM (inactive).

**Q.** What about the IC50 [8] of the same compound?
**A.** The IC50 was > 50 µM (not active).

**Q.** For `CC1[C@H]2Cc3ccc(O)cc3[C@]1(C)CCN2C` (stereo not given in full), which EC50 [1] is on record?
**A.** The EC50 was > 92.4 µM (inactive).

**Q.** What about the EC50 (Mu-type opioid receptor) of the same compound?
**A.** Its EC50 is > 92.4 µM (inactive).

**Q.** And the EC50 [5]?
**A.** The EC50 was > 92.4 µM (inactive).

**Q.** Which results are given for `O=C(N/N=C/c1ccccn1)c1ccc(Cl)c(Cl)c1`?
**A.** EC50 (BJ [9]): > 150 µM (not active); EC50 (Streptokinase A): > 150 µM (not active); EC50 (BJ [10]): 21.6 µM (active); EC50 [11]: 6.21 µM (active); IC50 [12]: > 79.4 µM (inactive); IC50 [13]: > 79.4 µM (inactive); IC50 [14]: > 79.4 µM (inactive); EC50 (BJ [15]): > 150 µM (not active); EC50 (Streptococcus): 22.9 µM (active); CC50 (Vero): > 25 µM (active); EC50 [16]: > 150 µM (not active)
